The record followed here is ChEMBL document CHEMBL5055636, “Design, Optimization, and Structural Characterization of an Apoptosis-Inducing Factor Peptide Targeting Human Cyclophilin A to Inhibit Apoptosis Inducing Factor-Mediated Cell Death” (J Med Chem, 2021).

Active and inactive are the calls of the source. Positions of bridges follow the written chain, without caps; N, C: chain ends. Residues, ends and D or L forms follow the SMILES beside them. A value given as a limit tells only on which side of the number the result lay.

The target of data set [1] is Peptidyl-prolyl cis-trans isomerase A (Homo sapiens, UniProt P62937). As to the kind of experiment: Binding affinity to His6-tagged CypA (unknown origin) expressed in Escherichia coli BL21 (DE3) incubation at 1 hr by multimode plate reader.
Data set [2] can be described thus: Stability of the compound in human serum assessed as half life after 12 hrs by RP-HPLC analysis. The format is ADME, cell-free.
The nature of data set [3]: Stability of the compound in human serum after 6 hrs by RP-HPLC analysis. The format is ADME, cell-free.
Data set [4] in a line: Cytotoxicity against mouse HT-22 cells assessed as cell viability at 50 uM measured after 24 hrs by MTT assay. The format is cell-based. The conditions noted are these: read-out: Activity.
A short description of data set [5]: Stability of the compound in human serum assessed as compound remaining after 12 hrs by RP-HPLC analysis. Particulars: read-out: Stability. The format is ADME, cell-free.
Another data set concerns HT-22. The experiment in a line: Neuroprotective activity against […]-induced toxicity in mouse HT-22 cells assessed as increase in survival at 50 uM preincubated for 24 hrs followed by […] and measured after 16 hrs by MTT assay. The format is functional. Particulars: time 40 hrs. Background: Formazan colour is commonly taken as a measure of viable cells.

The nature of data set [6]: Stability of the compound in human serum after 2 hrs by RP-HPLC analysis. The format is ADME, cell-free.

`CC[C@H](C)[C@@H]1NC(=O)[C@H](CC(C)C)NC(=O)[C@@H](NC(C)=O)CSSC[C@@H](C(N)=O)NC(=O)[C@H](CCC(=O)O)NC(=O)[C@H](C(C)C)NC(=O)[C@H](CCCCN)NC(=O)[C@H](CCCNC(=N)N)NC(=O)CNC(=O)[C@H](CC(=O)O)NC(=O)[C@H](C)NC(=O)[C@H](CC(C)C)NC(=O)[C@H](CCCCN)NC1=O` (Ac-CLIKLADGRKVEC-NH2; disulfide 1-13): the result in data set [1] was inactive.

In the case of `CC[C@H](C)[C@@H]1NC(=O)[C@H](C)NC(=O)[C@@H](NC(C)=O)CSSC[C@@H](C(N)=O)NC(=O)[C@H](CCC(=O)O)NC(=O)[C@H](C(C)C)NC(=O)[C@H](CCCCN)NC(=O)[C@H](CCCNC(=N)N)NC(=O)CNC(=O)[C@H](CC(=O)O)NC(=O)[C@H](CCCCN)NC(=O)[C@H](CC(C)C)NC(=O)[C@H](CCCCN)NC1=O` (Ac-CAIKLKDGRKVEC-NH2; disulfide 1-13), the outcome in data set [1] was Active.

As for `CC[C@H](C)[C@@H]1NC(=O)[C@H](CC(C)C)NC(=O)[C@@H](NC(C)=O)CSSC[C@@H](C(N)=O)NC(=O)[C@H](CCC(=O)O)NC(=O)[C@H](C(C)C)NC(=O)[C@H](CCCCN)NC(=O)[C@H](CCCNC(=N)N)NC(=O)CNC(=O)[C@H](CC(=O)O)NC(=O)[C@H](CCCCN)NC(=O)[C@H](CC(C)C)NC(=O)[C@H](C)NC1=O` (Ac-CLIALKDGRKVEC-NH2; disulfide 1-13), in data set [1], the result was inactive.

Broadly, the Kd is a measure of binding affinity in units of concentration. Read a high Kd as lower affinity. Take `CC[C@H](C)[C@@H]1NC(=O)[C@H](CC(C)C)NC(=O)[C@@H](NC(C)=O)CSSC[C@@H](C(N)=O)NC(=O)[C@H](CCC(=O)O)NC(=O)[C@H](C(C)C)NC(=O)[C@H](CCCCN)NC(=O)[C@H](CCCNC(=N)N)NC(=O)CNC(=O)[C@H](CC(=O)O)NC(=O)[C@H](CCCCN)NC(=O)[C@H](CC(C)C)NC(=O)[C@H](CCCCN)NC1=O` (Ac-CLIKLKDGRKVEC-NH2; disulfide 1-13): binding in data set [1] was characterised by a dissociation constant (Kd) of 3.2 µM.

Regarding `CC[C@H](C)[C@H](NC(=O)[C@H](CC(C)C)NC(=O)[C@H](CS)NC(C)=O)C(=O)N[C@@H](CCCCN)C(=O)N[C@@H](CC(C)C)C(=O)N[C@@H](CCCCN)C(=O)N[C@@H](CC(=O)O)C(=O)NCC(=O)N[C@@H](CCCNC(=N)N)C(=O)N[C@@H](CCCCN)C(=O)N[C@H](C(=O)N[C@@H](CCC(=O)O)C(=O)N[C@@H](CS)C(N)=O)C(C)C` (Ac-CLIKLKDGRKVEC-NH2), the Kd in data set [1] worked out at 30 µM.

Consider `CC[C@H](C)[C@@H]1NC(=O)[C@H](CC(C)C)NC(=O)[C@@H](NC(C)=O)CSSC[C@@H](C(N)=O)NC(=O)[C@H](CCC(=O)O)NC(=O)[C@H](C)NC(=O)[C@H](CCCCN)NC(=O)[C@H](CCCNC(=N)N)NC(=O)CNC(=O)[C@H](CC(=O)O)NC(=O)[C@H](CCCCN)NC(=O)[C@H](CC(C)C)NC(=O)[C@H](CCCCN)NC1=O` (Ac-CLIKLKDGRKAEC-NH2; disulfide 1-13), for which the outcome in data set [1] was Active.

As a reminder, the half-life is the time needed for the level to fall by half in the phase considered. Take `CC[C@H](C)[C@H](NC(=O)[C@H](Cc1cnc[nH]1)NC(=O)[C@H](CC(=O)O)NC(=O)[C@@H](NC(=O)[C@H](CCC(=O)O)NC(=O)[C@@H](NC(=O)[C@H](CCCCN)NC(=O)[C@H](CCCNC(=N)N)NC(=O)CNC(=O)[C@H](CC(=O)O)NC(=O)[C@H](CCCCN)NC(=O)[C@H](CC(C)C)NC(=O)[C@H](CCCCN)NC(=O)[C@@H](NC(=O)[C@H](CC(C)C)NC(=O)[C@H](CC(C)C)NC(=O)[C@H](CCCCN)NC(=O)CNC(=O)[C@H](CO)NC(=O)[C@H](CO)NC(=O)[C@@H](NC(=O)CNC(=O)[C@@H](NC(=O)[C@H](CO)NC(=O)[C@@H](N)CCC(N)=O)C(C)C)C(C)C)[C@@H](C)CC)C(C)C)[C@@H](C)O)C(=O)O`: the half-life in data set [2] was 4 h. The Stability result in data set [3] is recorded as “Unstable”. For the same compound, the viability at 24 h, 50 µM in data set [4] was over 90%.

For the compound `CC[C@H](C)[C@@H]1NC(=O)[C@H](CC(C)C)NC(=O)[C@@H](NC(C)=O)CSSC[C@@H](C(N)=O)NC(=O)[C@H](CCC(=O)O)NC(=O)[C@H](C(C)C)NC(=O)[C@H](CCCCN)NC(=O)[C@H](C)NC(=O)CNC(=O)[C@H](CC(=O)O)NC(=O)[C@H](CCCCN)NC(=O)[C@H](CC(C)C)NC(=O)[C@H](CCCCN)NC1=O` (Ac-CLIKLKDGAKVEC-NH2; disulfide 1-13), the result in data set [1] was inactive.

As for `CC(=O)N[C@H]1CSSC[C@@H](C(N)=O)NC(=O)[C@H](CCC(=O)O)NC(=O)[C@H](C(C)C)NC(=O)[C@H](CCCCN)NC(=O)[C@H](CCCNC(=N)N)NC(=O)CNC(=O)[C@H](CC(=O)O)NC(=O)[C@H](CCCCN)NC(=O)[C@H](CC(C)C)NC(=O)[C@H](CCCCN)NC(=O)[C@H](C)NC(=O)[C@H](CC(C)C)NC1=O` (Ac-CLAKLKDGRKVEC-NH2; disulfide 1-13), the result in data set [1] was Active.

Take `CC[C@H](C)[C@@H]1NC(=O)[C@H](CC(C)C)NC(=O)[C@@H](NC(C)=O)CSSC[C@@H](C(N)=O)NC(=O)[C@H](CCC(=O)O)NC(=O)[C@H](C(C)C)NC(=O)[C@H](C)NC(=O)[C@H](CCCNC(=N)N)NC(=O)CNC(=O)[C@H](CC(=O)O)NC(=O)[C@H](CCCCN)NC(=O)[C@H](CC(C)C)NC(=O)[C@H](CCCCN)NC1=O` (Ac-CLIKLKDGRAVEC-NH2; disulfide 1-13): in data set [1], the result was inactive.

Regarding `CC[C@H](C)[C@@H]1NC(=O)[C@H](CC(C)C)NC(=O)[C@@H](NC(C)=O)CSSC[C@@H](C(N)=O)NC(=O)[C@H](CCC(=O)O)NC(=O)[C@H](C(C)C)NC(=O)[C@H](CCCCN)NC(=O)[C@H](CCCNC(=N)N)NC(=O)CNC(=O)[C@H](CC(=O)O)NC(=O)[C@H](CCCCN)NC(=O)[C@H](C)NC(=O)[C@H](CCCCN)NC1=O` (Ac-CLIKAKDGRKVEC-NH2; disulfide 1-13), the result in data set [1] was Active.

`CC[C@H](C)[C@@H]1NC(=O)[C@@H](NC(C)=O)CSSC[C@@H](C(N)=O)NC(=O)[C@H](C(C)C)NC(=O)[C@H](CCCCN)NC(=O)[C@H](CCCNC(=N)N)NC(=O)CNC(=O)[C@H](CC(=O)O)NC(=O)[C@H](CCCCN)NC(=O)[C@H](CC(C)C)NC(=O)[C@H](CCCCN)NC1=O` (Ac-CIKLKDGRKVC-NH2; disulfide 1-11): the remaining at 12 h in data set [5] was 75%. Further, the Kd in data set [1] was determined as 2.4 µM. In the data set with HT-22, the Activity amounted to 10%. For the same compound, the viability at 24 h, 50 µM in data set [4] was over 90%. The Stability entry in data set [6] was “Unstable”.
